Laboratory results taken from patent US8466291B2, “1,5-dideoxy-1,5-imino-D-glucitol compounds” (Academia Sinica, priority 2008, dated 2013).

Experiments:
[1] = target: Bacteroids fragilis O-GlcNAcase (Bacteroides fragilis, UniProt Q5L8V6); assay: Michaelis-Menten/Lineweaver-Burk kinetic inhibition of O-GlcNAcase with 4MU-NAG substrate; assay type: biochemical
Protocol: Bacteroids fragilis O-GlcNAcase, which is highly homologous to human O-GlcNAcase, was prepared as follows. Based on the genome sequence of B. fragilis (NCTC 9343) as disclosed in GenBank accession no. CR626927 (Oct. 23, 2008), a DNA fragment encoding the B. fragilis O-GlcNAcse was amplified via polymerase chain reaction (PCR), using the primers of: 5′-[…]-3′ (SEQ ID NO:1) (forward primer) and 5′-[…]-3′ (SEQ ID NO:2) (reverse primer). The PCR product was cloned into pGEM-T Easy vector (Promega) via cloning sites Nde1 and Xho1 and then subcloned into pET21b vector to produce expression plasmid pOGA, which encodes a fusion protein including O-GlcNAcase and a His6 tag at the C-terminus
Plasmid pOGA was transformed into E. coli BL21 (DE3) cells and a positive transformant was cultured in Luria-Bertani (LB) medium with ampicillin (100 μg/mL) overnight. The E. coli culture, transferred to fresh LB medium, was incubated at 37° C. and, when A600 of the culture reached 0.6, isopropyl-β-D-thiogalactopyranoside (final conc: 250 μM) was added to induce expression of O-GlcNAcse. The induced cells were further cultured at 16° C. overnight, harvested, and disrupted to produce a cell lysate. Upon centrifugation, the supernatant thus obtained was loaded onto a nickel-affinity column. After elution, a fraction containing O-GlcNAcse was collected and the enzyme contained therein was further purified by gel filtration using a Superdex 6 column. See Dennis et al., Nat Struct Mol Biol 2006, 13: 365-71. The purified protein was concentrated using a 10 kDa-cutoff concentrator and dialyzed against 20 mM HEPES (pH 7.5).
The reaction conditions for each enzyme are shown below:
O-GlcNAcase: reaction mixture (0.5 nM O-GlcNAcase (200 μL) in 50 mM citric acid, 100 mM NaCl, 0.1% BSA, 0.05-1.5 mM substrate, pH 4.25) was incubated at 30° C. for 25 minutes. The enzyme activity at different time points was determined by measuring the levels of the fluorescent signals (excitation wavelength: 360 nm; emission wavelength: 460 nm) released from 4-methylumbelliferone, a product of the enzyme reaction.
(§1) In these reactions, the substrate concentrations were three to five fold of the concentration used for determining KM (absent compounds) and the ratio between the enzyme and the compound was 0.1-0.5 nM to 0.3 nM-200 uM. The data thus obtained were analyzed by the Lineweaver-Burk plot. The K1 values were determined by the double reciprocal plot (1/V vs. 1/[S]). More specifically, the Km values for each enzyme in the presence of one of the test compounds first determined and these values were further plotted in view of the concentrations of the compound. K1 was determined by calculating the negative value of the resulting x-intercept. The selectivity of each compound was calculated by the formula: K1 O-GlcNAcase/K1 Hex B.

Human HEX B = target: T1, Human HEX B (Homo sapiens, UniProt P07686); assay: Michaelis-Menten/Lineweaver-Burk kinetic inhibition of Hex B with 4MU-NAG substrate; assay type: biochemical
T1 construct: Hex B protein (isolated from human placenta) was purchased from Sigma Co; purchased Sigma Co; host or cells: human placenta
T1 sequence (P07686 315-556 limits assumed): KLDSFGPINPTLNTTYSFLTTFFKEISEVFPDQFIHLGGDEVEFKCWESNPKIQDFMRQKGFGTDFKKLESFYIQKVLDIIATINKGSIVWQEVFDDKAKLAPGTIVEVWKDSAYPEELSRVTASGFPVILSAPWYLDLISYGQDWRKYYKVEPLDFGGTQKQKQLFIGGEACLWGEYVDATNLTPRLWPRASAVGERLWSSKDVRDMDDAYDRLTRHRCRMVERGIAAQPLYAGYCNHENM
T1 sequence (P07686 122-311 limits assumed): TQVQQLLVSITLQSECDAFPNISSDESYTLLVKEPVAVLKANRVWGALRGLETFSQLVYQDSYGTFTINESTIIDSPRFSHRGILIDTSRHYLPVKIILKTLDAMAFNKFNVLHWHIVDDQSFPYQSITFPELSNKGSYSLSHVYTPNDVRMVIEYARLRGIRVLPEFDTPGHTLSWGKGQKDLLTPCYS
T1 sequence (P07686 50-107 partner limits assumed): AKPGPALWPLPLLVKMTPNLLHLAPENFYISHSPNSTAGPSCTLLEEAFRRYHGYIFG
Protocol: Hex B protein (isolated from human placenta) was purchased from Sigma Co.
Both O-GlcNAcase and Hex B were subjected to Michaelis-Menton kinetic analysis to determine the kinetics of their enzymatic activity in the presence of absence of Compounds 1-5 and Compound ix, using 4-methylumbelliferyl-N-acetyl-β-D-glucosaminide (4MU-NAG; purchased from Sigma Co.) as the substrate (a fluorogenic substrate). The reaction conditions for each enzyme are shown below:
Hex B: reaction mixture (0.1 nM Hex B (200 μL), 50 mM NaH2PO4, 100 mM NaCl, 0.1% BSA, 0.05-1.5 mM substrate, pH 6.5) was incubated at 30° C. for 25 minutes. The reaction was terminated by addition of a 3× quenching buffer (200 mM sodium glycine buffer, pH 10.8). The enzyme activity was determined as described above.
as §1, with “To determine the effects of Compounds 1-5 and Compound ix on the kinetics of both enzymes, the enzyme reactions described above were performed in the presence of each compound at different concentrations. In” for “In”

[2] = system: BV2 cells (mouse microglia cells); assay: GM2 ganglioside accumulation in BV2 microglia cells by Western blot; assay type: cell-based; details: different concentrations, 16 hr, Western blot with anti-Ganglioside asialo GM2 antibody
Protocol: BV2 cells (mouse microglia cells) were cultured in DMEM for 24 hr in 60-mm tissue culture dishes. The cells were washed once with PBS (pH 7.4), and 2 mL of fresh medium with or without biotin conjugated Compound 5 (at different concentrations) was added to each dish. After being incubated in a 5% CO2 incubator at 37° C. for 16 hr, the BV2 cells were harvested, re-suspended in a solution containing PBS and 2×SDS lysis buffer (250 mM Tris, pH 6.8/4% SDS/20% glycerol/0.002% bromophenol blue/10% 2-mercaptoethanol) at a ratio of 1:1 to produce whole cell lysates. The cell lysates were boiled and then subjected to SDS-PAGE (15%) using a mini-gel apparatus (Biorad, Germany). Substances contained in the gel were transferred to a nitrocellulose membrane (Millipore) at 1 mA/cm^2 using a semidry blot system (Biorad, Germany). The membrane was blocked with a Tris-buffered saline (TBST) (50 mM Tris-HCl, pH 7.5; 150 mM NaCl; 0.1% Tween-20) containing 5% skim-milk and then blotted with an anti-Ganglioside asialo GM2 antibody and an anti-GAPDH antibody.

Sequence of Bacteroids fragilis O-GlcNAcase (Q5L8V6 entry or part of it): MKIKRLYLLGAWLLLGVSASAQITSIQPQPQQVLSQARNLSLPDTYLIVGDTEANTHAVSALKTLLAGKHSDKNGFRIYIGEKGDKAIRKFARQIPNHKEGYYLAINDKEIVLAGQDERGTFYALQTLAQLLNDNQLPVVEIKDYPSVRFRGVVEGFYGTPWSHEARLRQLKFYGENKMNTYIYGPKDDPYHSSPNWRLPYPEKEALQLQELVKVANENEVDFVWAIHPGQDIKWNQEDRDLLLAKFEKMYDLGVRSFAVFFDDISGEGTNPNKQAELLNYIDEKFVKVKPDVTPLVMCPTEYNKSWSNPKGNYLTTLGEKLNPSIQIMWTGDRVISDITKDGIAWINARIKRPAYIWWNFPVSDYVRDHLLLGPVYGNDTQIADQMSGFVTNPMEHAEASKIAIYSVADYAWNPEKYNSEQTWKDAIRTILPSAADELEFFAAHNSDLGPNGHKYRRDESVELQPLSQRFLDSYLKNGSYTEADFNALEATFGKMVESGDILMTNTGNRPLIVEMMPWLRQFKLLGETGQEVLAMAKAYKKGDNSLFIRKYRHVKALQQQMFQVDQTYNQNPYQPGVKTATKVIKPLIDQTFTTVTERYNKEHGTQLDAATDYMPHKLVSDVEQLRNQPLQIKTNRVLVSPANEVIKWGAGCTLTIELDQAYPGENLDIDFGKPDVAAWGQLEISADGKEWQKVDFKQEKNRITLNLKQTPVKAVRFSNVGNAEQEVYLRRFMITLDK

CC(=O)NC1CN(CCCCCCCNC(=O)CCCCC2SCC3NC(=O)NC32)C(CO)C(O)C1O (centres unmarked) [Compound 5]
Ki [1]: 69600 ± 1770 nM | Selectivity (KI O-GlcNAcase/KI HEX) ([1]; Bacteroids fragilis O-GlcNAcase over human HEX B, Table 1): 2,600 | Ki (Human HEX B; Table 1): 26.7 ± 1.11 nM | Ki (Human HEX B; Table 2): 26.7 ± 1.11 nM | ganglioside GM2 accumulation [2]: accumulated in Compound 5-treated BV2 cells in a dose-dependent manner
